Test results taken from patent US7772260B2, “Imidazo[2,1-b]-1,3,4-thiadiazole sulfonamides” (Aegera Therapeutics Inc., priority 2001, dated 2010).
Structures can show the parent of a compound that is named as a salt. Where two headings read alike, the source gives them in different places.

System: SCG neurons
Assay: cells
Type: cell-based, Sprague Dawley rats
Conditions: Rattus norvegicus, Neuron, read-out: IC(50), protection of SCG neurons from Taxol killing
Method: Taxol™ is regularly used in breast cancer chemotherapy. In cancer cells Taxol™ binds to the cyto-skeletal protein tubulin, thereby inhibiting normal microtubular assembly and inducing cellular apoptosis. Despite its potency as an anti-tumour agent, Taxol™ is also toxic to neurons, inducing dose limiting peripheral neuropathies. The addition of Taxol™ (100 ng/mL) to cultured SCG neurons induces the degradation or loss of upwards of 80% of the neurons.
FIG. 1 illustrates the protection provided by compound 1 (referred to here as AEG3482) against Taxol™ induced killing. PI Sprague Dawley rat SCG neurons were cultured and incubated with NGF (50 ng/mL) for 5 days.

[1] = Taxol™ (50 ng/mL), viability 48 hours later, MTS

SMILES	IC50 [1]	IC50 (48 h)
COCCOCCOc1ccc(-c2cn3nc(S(N)(=O)=O)sc3n2)cc1 [Compound 30]	10 µM	–
NS(=O)(=O)c1nn2cc(-c3ccc(OCCOCc4ccccc4)cc3)nc2s1 [Compound 31, 6-(4′-(2-Benzyloxyethoxy)phenyl)-imidazo[2,1-b]-1,3,4-thidiazole-2 sulfonamide]	10 µM	–
NS(=O)(=O)c1nn2cc(-c3ccc(OCCCOCc4ccccc4)cc3)nc2s1 [Compound 32]	10 µM	–
Cc1ccc(C23CC4CC(CC(C4)C2)C3)cc1-c1cn2nc(S(N)(=O)=O)sc2n1 [Compound 51]	5 µM	–
NS(=O)(=O)c1nn2cc(-c3ccc(C(F)(F)F)cc3)nc2s1 [Compound 52, 6-(4-(Trifluoromethyl)phenyl)imidazo[2,1-b]-1,3,4-thiadiazole-2-sulfonamide]	3 µM	–
NS(=O)(=O)c1nn2cc(-c3cc(C(F)(F)F)cc(C(F)(F)F)c3)nc2s1 [Compound 54, 6-(3,5-di(trifluoromethyl)phenyl)imidazo[2,1-b]-1,3,4-thiadiazole-2-sulfonamide]	10 µM	–
CC(C)(C)c1cc(-c2cn3nc(S(N)(=O)=O)sc3n2)cc(C(C)(C)C)c1O [Compound 55, 6-(3,4-Di-tert-butyl-4-hydroxyphenyl)imidazo[2,1-b]-1,3,4-thiadiazole-2-sulfonamide]	15 µM	–
CC1(C)CCC(C)(C)c2cc(-c3cn4nc(S(N)(=O)=O)sc4n3)ccc21 [Compound 56, 6-(5,5,8,8-Tetramethyl-5,6,7,8-tetrahydronaphthalen-2-yl)imidazo[2,1-b]-1,3,4-thiadiazole-2-sulfonamide]	–	3 µM
Cc1cc2c(cc1-c1cn3nc(S(N)(=O)=O)sc3n1)C(C)(C)CCC2(C)C [Compound 57]	–	6 µM
CC(=O)N[C@@H](C)c1ccc(-c2cn3nc(S(N)(=O)=O)sc3n2)cc1 [Compound 58, 6-(4-(S-1-acetamidoethyl)phenyl)imidazo[2,1-b]-1,3,4-thiadiazole-2-sulfonamide]	30 µM	–
NS(=O)(=O)c1nn2cc(C(F)(F)F)nc2s1 [Compound 59]	10 µM	–
NS(=O)(=O)c1nn2cc(C34CC5CC(CC(C5)C3)C4)nc2s1 [Compound 60, 6-(1-adamantyl)imidazo[2,1-b]-1,3,4-thiadiazole-2-sulfonamide]	25 µM	–
NS(=O)(=O)c1nn2cc(-c3cccc4ccccc34)nc2s1 [Compound 61, 6-(1-Naphthyl)imidazo[2,1-b]-1,3,4-thiadiazole-2-sulfonamide]	10 µM	–
NS(=O)(=O)c1nn2cc(-c3ccc4ccccc4c3)nc2s1 [Compound 62, 6-(2-Naphthyl)imidazo[2,1-b]-1,3,4-thiadiazole-2-sulfonamide]	15 µM	–
COc1ccc2ccc(-c3cn4nc(S(N)(=O)=O)sc4n3)cc2c1Br [Compound 63, 6-(8-Bromo-7-methoxylnaphth-2-yl)imidazo[2,1-b]-1,3,4-thiadiazole-2-sulfonamide]	7 µM	–
NS(=O)(=O)c1nn2cc(-c3cc4ccc5cccc6ccc(c3)c4c56)nc2s1 [Compound 64, 6-pyrenylimidazo[2,1-b]-1,3,4-thiadiazole-2-sulfonamide]	–	10 µM
Cc1c(-c2ccccc2)nc2sc(S(N)(=O)=O)nn12 [Compound 65, 5-Methyl-6-phenyl-imidazo[2,1-b]-1,3,4-thiadiazole-2-sulfonamide]	15 µM	–
NS(=O)(=O)c1nn2c(-c3ccccc3)c(-c3ccccc3)nc2s1 [Compound 66, 5,6-Diphenyl-imidazo[2,1-b]-1,3,4-thiadiazole-2-sulfonamide]	20 µM	–
NS(=O)(=O)c1nn2cc(-c3ccc(N4CCCCC4)cc3)nc2s1 [Compound 67, 6-(4-Piperidinophenyl)imidazo[2,1-b]-1,3,4-thiadiazole-2-sulfonamide]	10 µM	–
NS(=O)(=O)c1nn2cc(-c3ccc(N4CCOCC4)cc3)nc2s1 [Compound 68, 6-(4-Morpholinophenyl)imidazo[2,1-b]-1,3,4-thiadiazole-2-sulfonamide]	7 µM	–
Nc1ccc(-c2cn3nc(S(N)(=O)=O)sc3n2)cc1 [Compound 70, 6-(4-Aminophenyl)imidazo[2,1-b]-1,3,4-thiadiazole-2-sulfonamide]	22 µM	–
NS(=O)(=O)c1nn2cc(-c3ccc(B(O)O)cc3)nc2s1 [Compound 71]	> 30 µM	–
NS(=O)(=O)c1nn2cc(-c3ccc(-c4c(F)c(F)c(F)c(F)c4F)cc3)nc2s1 [Compound 73, 6-(4-(2,3,4,5,6-tetrafluorophenyl)phenyl)imidazo[2,1-b]-1,3,4-thiadiazole-2-sulfonamide]	2 µM	–
COC(=O)COc1ccc(-c2cn3nc(S(N)(=O)=O)sc3n2)cc1 [Compound 101]	> 30 µM	–

SMILES	IC50 [1]	IC50 (48 h)
NS(=O)(=O)c1nn2cc(-c3ccc(OCC(=O)O)cc3)nc2s1 [Compound 102]	> 30 µM	–
COC(=O)COc1ccc(-c2nc3sc(S(N)(=O)=O)nn3c2C)cc1 [Compound 103]	> 30 µM	–
Cc1ccc(-c2nc3sc(S(N)(=O)=O)nn3c2C)cc1Cl [Compound 104, 6-(3-chloro-4-methylphenyl)-5-methylimidazo[2,1-b]-1,3,4-thiadiazole-2-sulfonamide]	7 µM	–
NS(=O)(=O)c1nn2cc(-c3ccncc3)nc2s1 [Compound 107, 6-(4-Pyridyl)imidazo[2,1-b]-1,3,4-thiadiazole-2-sulfonamide]	20 µM	–
NS(=O)(=O)c1nn2cc(-c3cnccn3)nc2s1 [Compound 108]	5 µM	–
NS(=O)(=O)c1nn2cc(-c3ccc4c(c3)NC(=O)CO4)nc2s1 [Compound 110]	> 30 µM	–
NS(=O)(=O)c1nn2cc(-c3cccs3)nc2s1 [Compound 112, 6-(2-Thiophenyl)-imidazo[2,1-b]-1,3,4-thiadiazole-2-sulfonamide]	5 µM	–
NS(=O)(=O)c1nn2cc(-c3ccc(-c4ccccc4)s3)nc2s1 [Compound 113, 6-(5-Phenylthiophen-2-yl)-imidazo[2,1-b]-1,3,4-thiadiazole-2-sulfonamide]	7 µM	–
NS(=O)(=O)c1nn2cc(-c3ccc([N+](=O)[O-])s3)nc2s1 [Compound 114, 6-(5-Nitro-2-thiophenyl)-imidazo[2,1-b]-1,3,4-thiadiazole-2-sulfonamide hydrobromide]	7 µM	–
Cc1c(-c2cn3nc(S(N)(=O)=O)sc3n2)sc2ccccc12 [Compound 115, 6-(3-Methylbenzo[b]thiophen-2-yl)imidazo[2,1-b]-1,3,4-thiadiazole-2-sulfonamide]	7 µM	–
NS(=O)(=O)c1nn2cc(-c3csc4ccccc34)nc2s1 [Compound 116, 6-(Benzo[b]thiophen-3-yl)imidazo[2,1-b]-1,3,4-thiadiazole-2-sulfonamide]	7 µM	–
NS(=O)(=O)c1nn2cc(-c3cc(-c4ccccc4)no3)nc2s1 [Compound 117, 6-(3-Phenylisoxazol-5-yl)imidazo[2,1-b]-1,3,4-thiadiazole-2-sulfonamide]	3 µM	–
Cc1onc(-c2ccccc2)c1-c1cn2nc(S(N)(=O)=O)sc2n1 [Compound 118, 6-(5-Methyl-3-phenylisoxazol-4-yl)imidazo[2,1-b]-1,3,4-thiadiazole-2-sulfonamide]	17 µM	–
Cc1c(-c2cn3nc(S(N)(=O)=O)sc3n2)cnn1-c1ccccc1 [Compound 120, 6-(5-methyl-1-phenyl-1H-pyrazol-4-yl)imidazo[2,1-b]-1,3,4-thiadiazole-2-sulfonamide]	7 µM	–
NS(=O)(=O)c1nn2cc(-c3nccs3)nc2s1 [Compound 121, 6-(Thiaxol-2-yl)imidazo[2,1-b]-1,3,4-thiadiazole-2-sulfonamide]	2 µM	–
Cc1nc(C)c(-c2cn3nc(S(N)(=O)=O)sc3n2)s1 [Compound 122, 6-(2,4-Thiaxol-5-yl)imidazo[2,1-b]-1,3,4-thiadiazole-2-sulfonamide]	8 µM	–
NS(=O)(=O)c1nn2c(Cl)c(-c3ccccc3)nc2s1 [Compound 123, 5-Chloro-6-phenyl-imidazo[2,1-b]-1,3,4-thiadiazole-sulfonamide]	> 30 µM	–
NS(=O)(=O)c1nn2c(Br)c(-c3ccccc3)nc2s1 [Compound 124, 5-Bromo-6-phenyl-imidazo[2,1-b]-1,3,4-thiadiazole-2-sulfonamide hydrobromide]	3 µM	–
NS(=O)(=O)c1nn2c(Br)c(-c3ccccn3)nc2s1 [Compound 125, 5-Bromo-6-(2-pyridyl)imidazo[2,1-b]-1,3,4-thiadiazole-2-sulfonamide hydrobromide]	3 µM	–
NS(=O)(=O)c1nn2c(Br)c(-c3ccc(Br)cc3)nc2s1 [Compound 128, 5-Bromo-6-(4-bromophenyl)imidazo[2,1-b]-1,3,4-thiadiazole-2-sulfonamide hydrobromide]	2 µM	–
COc1cccc(-c2nc3sc(S(N)(=O)=O)nn3c2Br)c1Br [Compound 129, 5-Bromo-6-(2-bromo3-methoxyphenyl)imidazo[2,1-b]-1,3,4-thiadiazole-2-sulfonamide hydrobromide]	7 µM	–
NS(=O)(=O)c1nn2c(Br)c(-c3ccc4ccccc4c3)nc2s1 [Compound 130, 5-Bromo-6-(2-naphthyl)imidazo[2,1-b]-1,3,4-thiadiazole-2-sulfonamide hydrobromide]	2 µM	–
NS(=O)(=O)c1nn2c(Cl)c(-c3ccc(-c4ccccc4)cc3)nc2s1 [Compound 131, 5-Chloro-6-(biphenyl)imidazo[2,1-b]-1,3,4-thiadiazole-2-sulfonamide hydrobromide]	3 µM	–
NS(=O)(=O)c1nn2c(Br)c(-c3ccc(-c4ccccc4)cc3)nc2s1 [Compound 132, 5-Bromo-6-(biphenyl)imidazo[2,1-b]-1,3,4-thiadiazole-2-sulfonamide hydrobromide]	1 µM	–
